This test concerns monocistronic NK5.1 HCV replicon in Huh7 cells. Briefly: HCV replicon assay, monocistronic replicon cell line. Type of test: cell-based, hepatitis C virus. The settings on record: Hepatitis C virus, Huh-7, 72 h; table T3 (compounds 471-640); monocistronic replicon in Huh7 cells, 3 days incubation, HCV RNA/GAPDH RNA by TaqMan RT-PCR; read-out: Mono EC50 Median. Summed up: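 EC50 derives from the HCV RNA/GAPDH RNA ratio by one-step TaqMan RT-PCR, relative to DMSO-only wells. Compounds (six half-log concentrations, 0.6% DMSO) were incubated 3 days at 37 °C with NK5.1 monocistronic replicon Huh7 cells plated a day earlier.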
Background: Replicon systems follow genome replication, usually without infectious particles.

From patent publication US20050075375A1 (priority 2003, published 2005) come the findings set out here.

A word on the EC50: it is the midpoint of the concentration-response curve. For the molecule `FC(F)(F)c1ccncc1-c1n[nH]c(-c2ccccc2Cl)n1` [Compound 476, 3-[5-(2-Chloro-phenyl)-1H-[1,2,4]triazol-3-yl]-4-trifluoromethyl-pyridine], the 50% effective concentration (EC50) was over 32 µM.

With `FC(F)(F)c1ccncc1-c1n[nH]c(-c2c(Cl)cccc2Cl)n1` [Compound 477, 3-[5-(2,6-Dichloro-phenyl)-1H-[1,2,4]triazol-3-yl]-4-trifluoromethyl-pyridine], the 50% effective concentration (EC50) was over 32 µM. To `Fc1cccc(F)c1-c1nc(-c2cnccc2C(F)(F)F)n[nH]1` [Compound 478, 3-[5-(2,6-Difluoro-phenyl)-1H-[1,2,4]triazol-3-yl]-4-trifluoromethyl-pyridine] belongs over 32 µM; to `Fc1cccc(Cl)c1-c1nc(-c2cnccc2C(F)(F)F)n[nH]1` [Compound 479, 3-[5-(2-Fluoro-6-chloro-phenyl)-1H-[1,2,4]triazol-3-yl]-4-trifluoromethyl-pyridine], over 32 µM. In the case of `O=[N+]([O-])c1cccc(-c2nc(-c3cnccc3C(F)(F)F)n[nH]2)c1` [Compound 480, 3-[5-(3-Nitro-phenyl)-1H-[1,2,4]triazol-3-yl]-4-trifluoromethyl-pyridine], the EC50 is over 32 µM. On to `COc1ccc(F)c(-c2nc(-c3cnccc3C(F)(F)F)n[nH]2)c1` [Compound 481, 3-[5-(2-Fluoro-5-methoxy-phenyl)-1H-[1,2,4]triazol-3-yl]-4-trifluoromethyl-pyridine], for which the EC50 was over 32 µM. The same measure for `Oc1ccc2ccccc2c1-c1nc(-c2ccccn2)n[nH]1` [Compound 482, 1-(5-Pyridin-2-yl-2H-[1,2,4]triazol-3-yl)-naphthalen-2-ol]: over 19 µM; for `Brc1cccnc1-c1n[nH]c(-c2cccc3ccccc23)n1` [Compound 483, 3-Bromo-2-(5-naphthalen-1-yl-1H-[1,2,4]triazol-3-yl)-pyridine]: over 32 µM.

On to `CC(C)(C)c1ccc(O)c(-c2nc(-c3ncccc3Br)n[nH]2)c1` [Compound 484, 2-[5-(3-Bromo-pyridin-2-yl)-2H-[1,2,4]triazol-3-yl]-4-tert-butyl-phenol], for which the EC50 was 7.2 µM. Consider `O=[N+]([O-])c1ccc(O)c(-c2nc(-c3ncccc3Br)n[nH]2)c1` [Compound 485, 2-[5-(3-Bromo-pyridin-2-yl)-2H-[1,2,4]triazol-3-yl]-4-Nitro-phenol], for which the concentration for a half-maximal effect (EC50) was over 19 µM. Regarding `Oc1ccc(F)cc1-c1nc(-c2ncccc2Br)n[nH]1` [Compound 486, 2-[5-(3-Bromo-pyridin-2-yl)-2H-[1,2,4]triazol-3-yl]-4-Fluoro-phenol], the half-maximal effective concentration (EC50) was found to be 7.4 µM. The same measure for `COc1ccc(O)c(-c2nc(-c3ncccc3Br)n[nH]2)c1` [Compound 487, 2-[5-(3-Bromo-pyridin-2-yl)-2H-[1,2,4]triazol-3-yl]-4-Methoxy-phenol]: over 32 µM; for `Oc1ccc(Cl)cc1-c1nc(-c2ncccc2Br)n[nH]1` [Compound 488, 2-[5-(3-Bromo-pyridin-2-yl)-2H-[1,2,4]triazol-3-yl]-4-Chloro-phenol]: 2.7 µM.

Regarding `CCOc1cccc(-c2nc(-c3ncccc3Br)n[nH]2)c1O` [Compound 489, 2-[5-(3-Bromo-pyridin-2-yl)-2H-[1,2,4]triazol-3-yl]-6-Ethoxy-phenol], the 50% effective concentration (EC50) turned out to be 22 µM. The same measure for `Oc1cc(OCc2ccccc2)ccc1-c1nc(-c2ncccc2Br)n[nH]1` [Compound 490, 2-[5-(3-Bromo-pyridin-2-yl)-2H-[1,2,4]triazol-3-yl]-5-Benzyloxy-phenol]: 7 µM; for `Fc1cc(-c2nc(-c3ncccc3Br)n[nH]2)ccc1-c1ccccc1` [Compound 491, 3-Bromo-2-[5-(2-Fluoro-biphenyl-4-yl)-1H-[1,2,4]triazol-3-yl]-pyridine]: 2.3 µM. To `Oc1ccc(Br)cc1-c1nc(-c2ncccc2Br)n[nH]1` [Compound 492, 2-[5-(3-Bromo-pyridin-2-yl)-2H-[1,2,4]triazol-3-yl]-4-Bromo-phenol] belongs 5.4 µM; to `Cc1ccc(O)c(-c2nc(-c3ncccc3Br)n[nH]2)c1` [Compound 493, 2-[5-(3-Bromo-pyridin-2-yl)-2H-[1,2,4]triazol-3-yl]-4-Methyl-phenol], 16 µM; to `COc1ccc(-c2nc(-c3ncccc3Br)n[nH]2)c(O)c1` [Compound 494, 2-[5-(3-Bromo-pyridin-2-yl)-2H-[1,2,4]triazol-3-yl]-5-Methoxy-phenol], over 32 µM. The same measure for `Oc1ccccc1-c1nc(-c2ncccc2Br)n[nH]1` [Compound 495, 2-[5-(3-Bromo-pyridin-2-yl)-2H-[1,2,4]triazol-3-yl]-phenol]: 15 µM. As for `COc1cccc(-c2nc(-c3ncccc3Br)n[nH]2)c1O` [Compound 496, 2-[5-(3-Bromo-pyridin-2-yl)-2H-[1,2,4]triazol-3-yl]-6-Methoxy-phenol], the half-maximal effective concentration (EC50) is over 32 µM.

`O=[N+]([O-])c1cccc(-c2nc(-c3ncccc3Br)n[nH]2)c1` [Compound 497, 3-Bromo-2-[5-(3-nitro-phenyl)-1H-[1,2,4]triazol-3-yl]-pyridine]: the half-maximal effective concentration (EC50) is over 32 µM.

For the molecule `CCN(CC)c1ccc(-c2nc(-c3ncccc3Br)n[nH]2)c(O)c1` [Compound 498, 2-[5-(3-Bromo-pyridin-2-yl)-2H-[1,2,4]triazol-3-yl]-5-Diethylamino-phenol], the EC50 amounted to 5.8 µM. In the case of `Oc1ccc(O)c(-c2nc(-c3ncccc3Br)n[nH]2)c1` [Compound 499, 2-[5-(3-Bromo-pyridin-2-yl)-2H-[1,2,4]triazol-3-yl]-4-Hydroxy-phenol], the EC50 is 6.2 µM. The same measure for `COc1cccc(-c2nc(-c3ncccc3Br)n[nH]2)c1` [Compound 500, 3-Bromo 2-[5-(3-Methoxy-phenyl)-1H-[1,2,4]triazol-3-yl]-pyridine]: over 32 µM; for `COc1ccc(F)c(-c2nc(-c3ncccc3Br)n[nH]2)c1` [Compound 501, 3-Bromo-2-[5-(2-Fluoro-5-methoxy-phenyl)-1H-[1,2,4]triazol-3-yl]-pyridine]: over 32 µM. The same measure for `CC(C)c1ccc(-c2nc(-c3ncccc3Br)n[nH]2)cc1` [Compound 502, 3-Bromo-2-[5-(4-isopropyl-phenyl)-1H-[1,2,4]triazol-3-yl]-pyridine]: 12 µM; for `Oc1ccc2ccccc2c1-c1nc(-c2ncccc2Br)n[nH]1` [Compound 503, 1-(5-(3-Bromo-pyridin-2-yl)-2H-[1,2,4]triazol-3-yl)-naphthalen-2-ol]: 6.9 µM. On to `Cc1cccnc1-c1n[nH]c(-c2ccccc2Br)n1` [Compound 504, 2-[5-(2-Bromo-phenyl)-1H-[1,2,4]triazol-3-yl]-3-mehtyl-pyridine], for which the EC50 stood at 7.3 µM.

As to `Cc1cccnc1-c1n[nH]c(-c2cccc(Br)c2)n1` [Compound 505, 2-[5-(3-Bromo-phenyl)-1H-[1,2,4]triazol-3-yl]-3-methyl-pyridine], the EC50 turned out to be 4 µM. The same measure for `FC(F)(F)c1ccc(-c2n[nH]c(-c3cccc4ccccc34)n2)nc1` [Compound 506, 2-(5-Naphthalen-1-yl-1H-[1,2,4]triazol-3-yl)-5-trifluoromethyl-pyridine]: over 19 µM. The same measure for `CC(C)(C)c1ccc(O)c(-c2nc(-c3ccc(C(F)(F)F)cn3)n[nH]2)c1` [Compound 507, 4-tert-Butyl-2-[5-(5-trifluoromethyl-pyridin-2-yl)-2H-[1,2,4]triazol-3-yl]-phenol]: over 19 µM; for `O=[N+]([O-])c1ccc(O)c(-c2nc(-c3ccc(C(F)(F)F)cn3)n[nH]2)c1` [Compound 508, 4-Nitro-2-[5-(5-trifluoromethyl-pyridin-2-yl)-2H-[1,2,4]triazol-3-yl]-phenol]: over 19 µM; for `Oc1ccc(F)cc1-c1nc(-c2ccc(C(F)(F)F)cn2)n[nH]1` [Compound 509, 4-Fluoro-2-[5-(5-trifluoromethyl-pyridin-2-yl)-2H-[1,2,4]triazol-3-yl]-phenol]: over 19 µM. The same measure for `COc1ccc(O)c(-c2nc(-c3ccc(C(F)(F)F)cn3)n[nH]2)c1` [Compound 510, 4-Methoxy-2-[5-(5-trifluoromethyl-pyridin-2-yl)-2H-[1,2,4]triazol-3-yl]-phenol]: over 19 µM. Turning to `Oc1ccc(Cl)cc1-c1nc(-c2ccc(C(F)(F)F)cn2)n[nH]1` [Compound 511, 4-Chloro-2-[5-(5-trifluoromethyl-pyridin-2-yl)-2H-[1,2,4]triazol-3-yl]-phenol], the EC50 was over 19 µM.

With `CCOc1cccc(-c2nc(-c3ccc(C(F)(F)F)cn3)n[nH]2)c1O` [Compound 512, 6-Ethoxy-2-[5-(5-trifluoromethyl-pyridin-2-yl)-2H-[1,2,4]triazol-3-yl]-phenol], the EC50 is over 19 µM. For the molecule `Oc1cc(OCc2ccccc2)ccc1-c1nc(-c2ccc(C(F)(F)F)cn2)n[nH]1` [Compound 513, 5-Benzyloxy-2-[5-(5-trifluoromethyl-pyridin-2-yl)-2H-[1,2,4]triazol-3-yl]-phenol], the concentration for a half-maximal effect (EC50) was over 19 µM. To `Fc1cc(-c2nc(-c3ccc(C(F)(F)F)cn3)n[nH]2)ccc1-c1ccccc1` [Compound 514, 2-[5-(2-Fluoro-biphenyl-4-yl)-1H-[1,2,4]triazol-3-yl]-5-trifluoromethyl-pyridine] belongs over 19 µM; to `Oc1ccc(Br)cc1-c1nc(-c2ccc(C(F)(F)F)cn2)n[nH]1` [Compound 515, 4-Bromo-2-[5-(5-trifluoromethyl-pyridin-2-yl)-2H-[1,2,4]triazol-3-yl]-phenol], over 19 µM.

For the molecule `Cc1ccc(O)c(-c2nc(-c3ccc(C(F)(F)F)cn3)n[nH]2)c1` [Compound 516, 4-Methyl-2-[5-(5-trifluoromethyl-pyridin-2-yl)-2H-[1,2,4]triazol-3-yl]-phenol], the EC50 was over 19 µM. Take `COc1ccc(-c2nc(-c3ccc(C(F)(F)F)cn3)n[nH]2)c(O)c1` [Compound 517, 5-Methoxy-2-[5-(5-trifluoromethyl-pyridin-2-yl)-2H-[1,2,4]triazol-3-yl]-phenol]: the EC50 was over 19 µM.
